Source: ChEMBL document CHEMBL1201862, “PubChem BioAssay data set” (2004)
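Test compounds were applied to cells in 96-well plates for 48 hours at 5 doses. GI50: concentration for 50% inhibition of growth.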 Calls of active or inactive are those of the source. Cut-off read from the data, not from the text of the source: active = GI50 up to about 1.1 µM and inactive = higher.

Assays:
Test in all cases: DTP human tumour cell line panel, 48 h
[1] = tested on: UACC-257
[2] = tested on: KM12
[3] = tested on: HCT-116
[4] = tested on: EKVX
[5] = tested on: ACHN
[6] = tested on: HCT-15
[7] = tested on: MOLT-4
[8] = tested on: NCI/ADR-RES
[9] = tested on: CCRF-CEM
[10] = tested on: SNB-19
[11] = tested on: COLO 205
[12] = tested on: BT-549
[13] = tested on: SR
[14] = tested on: UACC-62
[15] = tested on: DU-145
[16] = tested on: OVCAR-4
[17] = tested on: TK-10
[18] = tested on: LOX IMVI
[19] = tested on: Hs-578T

CCOC1(OCC)N=C(N)C2(C#N)C3(C(=O)N(C(C)C)N=C3C)C12C#N (stereo unspecified)
GI50 [1]: > 100 µM (inactive)
GI50 [2]: > 100 µM (inactive)
GI50 [3]: > 100 µM (inactive)
GI50 [4]: > 100 µM (inactive)
GI50 [5]: > 100 µM (inactive)
GI50 [6]: > 100 µM
GI50 [7]: > 100 µM (inactive)
GI50 [8]: > 100 µM (inactive)
GI50 [9]: 38.5 µM (inactive)
GI50 [10]: > 100 µM (inactive)
GI50 [11]: > 100 µM (inactive)
GI50 [12]: > 100 µM (inactive)
GI50 [13]: 45.4 µM (inactive)
GI50 [14]: > 100 µM (inactive)
GI50 [15]: > 100 µM (inactive)
GI50 [16]: > 100 µM (inactive)

CCN1CN(c2ccccc2)C2(CCN(CCCSc3ccc(F)cc3)CC2)C1=O
GI50 [1]: 6.11 µM (inactive)
GI50 [2]: 14.3 µM (inactive)
GI50 [3]: 4.36 µM (inactive)
GI50 [4]: 4.89 µM (inactive)
GI50 [5]: 4.7 µM (inactive)
GI50 [6]: 11 µM
GI50 [7]: 4.88 µM (inactive)
GI50 [8]: 12.2 µM (inactive)
GI50 [9]: 4.24 µM (inactive)
GI50 [10]: 10.1 µM (inactive)
GI50 [11]: 2.41 µM (inactive)
GI50 [12]: 8.61 µM (inactive)
GI50 [13]: 11.8 µM (inactive)
GI50 [17]: 12.7 µM (inactive)
GI50 [14]: 15.1 µM (inactive)
GI50 [18]: 14.3 µM (inactive)
GI50 [15]: 4.65 µM (inactive)

c1ccc(P(=C2c3ccccc3-c3ccccc32)(c2ccccc2)c2ccccc2)cc1
GI50 [1]: 3.94 µM (inactive)
GI50 [2]: 2.24 µM (inactive)
GI50 [4]: 5.58 µM (inactive)
GI50 [5]: 2.66 µM (inactive)
GI50 [6]: 5.02 µM
GI50 [9]: 2.51 µM (inactive)
GI50 [10]: 4.67 µM (inactive)
GI50 [11]: 3.42 µM (inactive)
GI50 [17]: 7.64 µM (inactive)
GI50 [14]: 3.46 µM (inactive)
GI50 [18]: 2.83 µM (inactive)
GI50 [16]: 6.1 µM (inactive)

COc1ccc2c(C)cc(=O)oc2c1OC
GI50 [1]: > 100 µM (inactive)
GI50 [2]: > 100 µM (inactive)
GI50 [3]: > 100 µM (inactive)
GI50 [4]: > 100 µM (inactive)
GI50 [19]: > 100 µM (inactive)
GI50 [5]: > 100 µM (inactive)
GI50 [6]: > 100 µM
GI50 [7]: > 100 µM (inactive)
GI50 [8]: > 100 µM (inactive)
GI50 [9]: > 100 µM (inactive)
GI50 [10]: > 100 µM (inactive)
GI50 [11]: > 100 µM (inactive)
GI50 [13]: > 100 µM (inactive)
GI50 [17]: > 100 µM (inactive)
GI50 [14]: > 100 µM (inactive)
GI50 [18]: > 100 µM (inactive)
GI50 [15]: > 100 µM (inactive)
GI50 [16]: > 100 µM (inactive)

CCOC(=O)Cn1sc2ncc([N+](=O)[O-])cc2c1=O
GI50 [1]: 17.1 µM (inactive)
GI50 [2]: 18.5 µM (inactive)
GI50 [3]: 17.3 µM (inactive)
GI50 [4]: 27.9 µM (inactive)
GI50 [19]: 41 µM (inactive)
GI50 [5]: 15.9 µM (inactive)
GI50 [6]: 16.4 µM
GI50 [7]: 2.86 µM (inactive)
GI50 [8]: 13.9 µM (inactive)
GI50 [9]: 2.07 µM (inactive)
GI50 [11]: 13 µM (inactive)
GI50 [13]: 4.02 µM (inactive)
GI50 [17]: 17.9 µM (inactive)
GI50 [14]: 23 µM (inactive)
GI50 [18]: 13.6 µM (inactive)
GI50 [15]: > 100 µM (inactive)
GI50 [16]: 18.8 µM (inactive)

O=C1OCOC2(CCCC2)C1c1ccccc1 (stereo unspecified)
GI50 [1]: > 100 µM (inactive)
GI50 [2]: > 100 µM (inactive)
GI50 [3]: > 100 µM (inactive)
GI50 [4]: > 100 µM (inactive)
GI50 [19]: > 100 µM (inactive)
GI50 [5]: > 100 µM (inactive)
GI50 [6]: > 100 µM
GI50 [7]: > 100 µM (inactive)
GI50 [8]: > 100 µM (inactive)
GI50 [9]: > 100 µM (inactive)
GI50 [10]: > 100 µM (inactive)
GI50 [11]: > 100 µM (inactive)
GI50 [13]: > 100 µM (inactive)
GI50 [17]: > 100 µM (inactive)
GI50 [14]: > 100 µM (inactive)
GI50 [18]: > 100 µM (inactive)
GI50 [15]: > 100 µM (inactive)
GI50 [16]: > 100 µM (inactive)

[O-][n+]1onc2c1-c1nonc1CC2
GI50 [1]: 18.5 µM (inactive)
GI50 [2]: 45.3 µM (inactive)
GI50 [3]: 20.7 µM (inactive)
GI50 [4]: 25.9 µM (inactive)
GI50 [19]: 26.7 µM (inactive)
GI50 [5]: 27.1 µM (inactive)
GI50 [6]: 62.8 µM
GI50 [7]: 19.2 µM (inactive)
GI50 [8]: 42.7 µM (inactive)
GI50 [9]: 27.7 µM (inactive)
GI50 [10]: > 100 µM (inactive)
GI50 [11]: 48.5 µM (inactive)
GI50 [13]: 1.46 µM (inactive)
GI50 [17]: 21.5 µM (inactive)
GI50 [14]: 36.6 µM (inactive)
GI50 [18]: 22.4 µM (inactive)
GI50 [15]: 51.2 µM (inactive)
GI50 [16]: 30.3 µM (inactive)

Nc1ccc2c(c1)S(=O)(=O)c1cc(N)ccc1-2
GI50 [1]: > 100 µM (inactive)
GI50 [2]: > 100 µM (inactive)
GI50 [3]: > 100 µM (inactive)
GI50 [4]: > 100 µM (inactive)
GI50 [19]: > 100 µM (inactive)
GI50 [5]: > 100 µM (inactive)
GI50 [6]: > 100 µM
GI50 [7]: > 100 µM (inactive)
GI50 [8]: > 100 µM (inactive)
GI50 [10]: > 100 µM (inactive)
GI50 [11]: > 100 µM (inactive)
GI50 [12]: > 100 µM (inactive)
GI50 [17]: > 100 µM (inactive)
GI50 [14]: > 100 µM (inactive)
GI50 [18]: > 100 µM (inactive)
GI50 [15]: > 100 µM (inactive)
GI50 [16]: > 100 µM (inactive)

CCOC(=O)[C@]12C(=C(c3ccccc3)O[C@H]3C=CCC[C@H]31)C(=O)C(=O)N2c1ccccc1
GI50 [2]: 37.7 µM (inactive)
GI50 [3]: > 100 µM (inactive)
GI50 [5]: > 100 µM (inactive)
GI50 [6]: > 100 µM
GI50 [7]: 21.4 µM (inactive)
GI50 [8]: 17.1 µM (inactive)
GI50 [10]: > 100 µM (inactive)
GI50 [11]: > 100 µM (inactive)
GI50 [13]: 17.7 µM (inactive)
GI50 [17]: > 100 µM (inactive)
GI50 [14]: > 100 µM (inactive)
GI50 [15]: > 100 µM (inactive)
GI50 [16]: > 100 µM (inactive)
